Here are results for 30 compounds from patent US20130116227A1, “BIARYL AMIDE DERIVATIVE OR PHARMACEUTICALLY ACCEPTABLE SALT THEREOF” (DAINIPPON SUMITOMO PHARMA CO., LTD., priority 2010, published 2013).

Structures are written as SMILES.

The first test addresses T1, aldosterone receptor (Rattus norvegicus, UniProt P22199).
T1 construct: centrifuged at 105,000 g for 30 minutes, and then a supernatant was collected as a renal soluble fraction; from tissue; host or cells: rat kidney (adrenalectomized rat), 105,000 g supernatant (cytosol)
T1 sequence (P22199 1-981): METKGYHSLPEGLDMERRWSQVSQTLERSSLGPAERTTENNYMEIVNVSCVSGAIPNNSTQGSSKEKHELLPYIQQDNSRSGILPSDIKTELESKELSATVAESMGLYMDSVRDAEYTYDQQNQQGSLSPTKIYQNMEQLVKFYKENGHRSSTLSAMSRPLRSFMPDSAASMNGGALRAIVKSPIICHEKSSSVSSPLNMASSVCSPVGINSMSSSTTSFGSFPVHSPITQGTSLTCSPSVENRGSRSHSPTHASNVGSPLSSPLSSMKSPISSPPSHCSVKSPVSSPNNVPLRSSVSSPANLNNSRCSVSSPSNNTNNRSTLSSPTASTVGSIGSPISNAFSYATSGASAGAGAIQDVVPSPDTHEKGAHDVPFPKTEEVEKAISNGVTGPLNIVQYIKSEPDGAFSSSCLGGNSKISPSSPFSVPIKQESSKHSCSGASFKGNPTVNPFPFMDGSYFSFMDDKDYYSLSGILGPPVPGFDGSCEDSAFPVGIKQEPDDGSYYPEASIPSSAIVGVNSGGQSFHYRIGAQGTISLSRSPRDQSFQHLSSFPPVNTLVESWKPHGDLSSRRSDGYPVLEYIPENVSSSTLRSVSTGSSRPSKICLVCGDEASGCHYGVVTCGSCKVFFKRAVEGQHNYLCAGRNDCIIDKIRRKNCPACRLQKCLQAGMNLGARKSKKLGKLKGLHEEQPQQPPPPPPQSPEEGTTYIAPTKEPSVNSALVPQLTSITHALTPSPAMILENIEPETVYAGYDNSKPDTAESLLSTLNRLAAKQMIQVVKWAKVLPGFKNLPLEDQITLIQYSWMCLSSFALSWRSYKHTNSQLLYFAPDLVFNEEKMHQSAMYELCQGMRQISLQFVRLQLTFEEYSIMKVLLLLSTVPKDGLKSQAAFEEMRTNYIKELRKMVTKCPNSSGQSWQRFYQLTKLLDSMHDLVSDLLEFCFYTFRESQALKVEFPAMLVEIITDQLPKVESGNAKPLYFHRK
In words: Binding inhibition test for aldosterone receptor ([3H]aldosterone, rat renal soluble fraction). The settings on record: [3H]aldosterone 2 nM, rat renal soluble fraction, in the presence of 2 μM RU-486, 4° C. about 18 hours; read-out: MR IC50. The essentials:
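Incubation: ~18 h at 4 °C with 2 μM RU-486 to block glucocorticoid receptor, using kidney cytosol from adrenalectomized rats; free ligand removed with dextran-charcoal before scintillation counting.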
As for `COc1cc(NC(=O)c2ccc(-c3ccc(F)cc3C(F)(F)F)c(CNCC(F)F)c2)ccc1S(N)(=O)=O` [Example 486], the IC50 (in general, the concentration at which inhibition is half-maximal) is below 10000 nM.
Still for that read-out and setting: in the case of `COc1cc(C(=O)Nc2ccc(-c3ccccc3Cl)c(CNCC(F)F)c2)ccc1S(N)(=O)=O` [Example 488] it was below 10000 nM.
On the same count and under the same terms, in the case of `COc1cc(C(=O)Nc2ccc(-c3ccccc3OC(F)(F)F)c(C)c2)ccc1S(N)(=O)=O` [Example 499] it was 1200 nM; in that of `CCCN(Cc1cc(C(=O)Nc2ccc(S(C)(=O)=O)cc2)ccc1-c1ccccc1OC(F)(F)F)CC1CC1` [Example 500], 190 nM.
Take `CCCN(CCC)Cc1cc(C(=O)Nc2ccc(S(C)(=O)=O)cc2)ccc1-c1ccccc1OC(F)(F)F` [Example 505]: the 50% inhibitory concentration (IC50) came out at 290 nM.
As for `CS(=O)(=O)c1ccc(NC(=O)c2ccc(-c3ccccc3OC(F)(F)F)c(CN3CCC3)c2)cc1` [Example 508], the IC50 is below 10000 nM.
For `CS(=O)(=O)c1ccc(NC(=O)c2ccc(-c3ccccc3OC(F)(F)F)c(CN3CC[C@@H](F)C3)c2)cc1` [Example 510], the half-maximal inhibitory concentration (IC50) was 280 nM.
With `CS(=O)(=O)c1ccc(NC(=O)c2ccc(-c3ccccc3OC(F)(F)F)c(CNC3CC3)c2)cc1` [Example 513], the half-maximal inhibitory concentration (IC50) was determined as 700 nM.
On to `Cn1nccc1CNCc1cc(C(=O)Nc2ccc(S(C)(=O)=O)cc2)ccc1-c1ccccc1OC(F)(F)F` [Example 520], for which the IC50 was 2900 nM.
Same read-out and setting: in the case of `CS(=O)(=O)c1ccc(NC(=O)c2ccc(-c3ccccc3OC(F)(F)F)c(CNc3ncccn3)c2)cc1` [Example 526] it was 2200 nM; in that of `COc1cc(C(=O)Nc2ccc(-c3ccccc3C(F)(F)F)c(CNCC(F)(F)F)c2)ccc1S(N)(=O)=O` [Example 528], below 10000 nM; in that of `COc1cc(NC(=O)c2ccc(-c3cccnc3-c3cccnc3)c(C)c2)ccc1S(N)(=O)=O` [Example 531], below 10000 nM.
The same measure, in the same setting: next, `COc1cc(NC(=O)c2ccc(-c3cccnc3C3CC3)c(C)c2)ccc1S(N)(=O)=O` [Example 533]: 1600 nM; `COc1cc(NC(=O)c2ccc(-c3cccc4cccnc34)c(C)c2)ccc1S(N)(=O)=O` [Example 537]: 5400 nM.
The same measure, in the same setting: in the case of `COCc1cc(NC(=O)c2ccc(S(N)(=O)=O)c(OC)c2)ccc1-c1cccnc1C1CC1` [Example 545] it was below 10000 nM.
On to `CCOCc1cc(C(=O)Nc2ccc(S(N)(=O)=O)c(OC)c2)ccc1-c1cccnc1OCC` [Example 547], for which the IC50 was below 10000 nM.
The same measure, in the same setting: in the case of `COc1cc(C(=O)Nc2ccc(-c3ccccc3C(F)(F)F)c(Cc3nccn3C)c2)ccc1S(N)(=O)=O` [Example 550] it was 620 nM.
The same measure, in the same setting: in the case of `COc1cc(NC(=O)c2ccc(-c3ccccc3OC(F)(F)F)c(N)c2)ccc1S(N)(=O)=O` [Example 560] it was 240 nM; in that of `CCN(CC)c1cc(C(=O)Nc2ccc(S(N)(=O)=O)c(OC)c2)ccc1-c1ccccc1OC(F)(F)F` [Example 561], 100 nM; in that of `COc1cc(NC(=O)c2ccc(-c3ccccc3OC(F)(F)F)c(NCc3nccn3C)c2)ccc1S(N)(=O)=O` [Example 577], below 10000 nM.
Still for that read-out and setting: in the case of `COC(=O)Nc1cc(C(=O)Nc2ccc(S(N)(=O)=O)c(OC)c2)ccc1-c1ccccc1OC(F)(F)F` [Example 578] it was below 10000 nM; in that of `CCOC(=O)Nc1cc(C(=O)Nc2ccc(S(N)(=O)=O)c(OC)c2)ccc1-c1ccccc1CC` [Example 581], below 10000 nM.
For the compound `COc1cc(NC(=O)c2ccc(-c3ccccc3OC3CC3)c(CO)c2)ccc1S(N)(=O)=O` [Example 590], the IC50 was below 10000 nM.
On the same count and under the same terms, next, `COc1ccc(-c2ccc(C(=O)Nc3ccc(S(N)(=O)=O)c(OC)c3)cc2CNCC(F)F)c(C)c1` [Example 592]: below 10000 nM.
On the same count and under the same terms, next, `COc1cc(F)ccc1-c1ccc(C(=O)Nc2ccc(S(N)(=O)=O)c(OC)c2)cc1CNCC(F)F` [Example 593]: below 10000 nM; `COc1cccc(NC(=O)c2ccc(-c3ccccc3)c(CN3CCCCC3)c2)c1` [compound 1]: above 10000 nM; `NS(=O)(=O)c1cccc(NC(=O)c2ccc(-c3ccccc3)c(CN3CCCCC3)c2)c1` [compound 2]: above 10000 nM.

The test is the same for the next values; noted with them: rat renal soluble fraction, [3H] aldosterone 2 nM, in the presence of 2 μM RU-486.
As for `COc1cccc(NC(=O)c2ccc(-c3ccccc3)c(CN3CCCCC3)c2)c1` [compound 1, reference compound], the “binding affinities for aldosterone receptor” value is “very few binding affinities”.
With `NS(=O)(=O)c1cccc(NC(=O)c2ccc(-c3ccccc3)c(CN3CCCCC3)c2)c1` [compound 2, reference compound], the “binding affinities for aldosterone receptor” value is reported as “very few binding affinities”.

The same test, now with this note: read-out: Inhibition rates (%) in 100 μM.
On to `COc1cccc(NC(=O)c2ccc(-c3ccccc3)c(CN3CCCCC3)c2)c1` [compound 1], for which the inhibition (usually the change of the read-out against control, counted positive when it falls) at 100 µM came out at 7%.
Turning to `NS(=O)(=O)c1cccc(NC(=O)c2ccc(-c3ccccc3)c(CN3CCCCC3)c2)c1` [compound 2], the inhibition at 100 µM turned out to be 11%.

The subject of a further test is normal rat. In words: Antagonism (in vivo antagonist activity) against reduction of Na/K ratios in DOCA induced urine of normal rat. To be noted: oral administration 30 minutes before DOCA 0.3 mg/kg s.c., urine collected for 8 hours. The procedure: Antagonism (In Vivo Antagonist Activity) Against Reduction of Na/K Ratios in Deoxycorticosterone Acetate (DOCA) Induced Urine of Normal Rat
A rat was encaged in a metabolism cage and was collected urine for 8 hours. When a test article was orally administered, it was administered in 5 ml/kg of dosage solution amounts using 0.5% methylcellulose as a solvent. DOCA was dissolved in corn oil in 0.3 mg/ml, and was subcutaneously administered in 1 ml/kg (0.3 mg/kg). Administration timing for a test article was 30 minutes before DOCA administration. 20 ml/kg of Solution amounts of saline was orally administered when administering DOCA in order to stabilize urine amounts and to secure enough amounts. Collected urine was analyzed its amounts, and then electrolyte (sodium: Na^+ and potassium: K^+) concentrations in urine were analyzed by an automatic biochemical analyzer (manufactured by JEOL Ltd., JCA-BM1650) to calculate ratios of Na^+ and K^+.
Turning to `COC(=O)[C@@H]1CC2=CC(=O)CC[C@]2(C)[C@@]23O[C@@H]2C[C@@]2(C)[C@@H](CC[C@@]24CCC(=O)O4)[C@H]13` [eplerenone], the “suppression of reduction of Na/K ratios in DOCA-induced urine” value is reported as “suppressed reduction of Na/K ratios in DOCA-induced urine in a dose-dependent manner”.
